Where two headings read alike, the source gives them in different places.
Tests used:
[1] = tested on: CD8+ T cells; assay: Meta-analysis of published SARS-CoV-2 CD8 T cell epitope data curated in the IEDB (25 studies); assay type: cell-based, human; conditions: dominant = recognized by 3 or more donors/different studies
[2] = tested on: CD8+ T cells; conditions: cited from earlier work
[3] = SARS-CoV-2-derived CD8 epitopes
[4] = T cell type (CD4 or CD8) recognizing the SARS-CoV-2 epitope
[5] = SARS-CoV-2 Ag S, T cell type recognizing the epitope

Substance	Dominant [1, 3]	Restriction [2, 4]	Dominant ([1]; SARS-CoV-2 Ag S, CD8 epitopes)	Restriction [2, 5]
1084 (MLWCKDGHV) [compound 1084]	Yes (more dominant epitopes are defined by being recognized by 3 or more donors/different studies)	CD8		
1027 (VYRGTTTYKL) [compound 1027]	Yes (more dominant epitopes are defined by being recognized by 3 or more donors/different studies)	CD8		
1061 (SYATHSDKF) [compound 1061]	Yes (more dominant epitopes are defined by being recognized by 3 or more donors/different studies)	CD8		
966 (VVDKYFDCY) [compound 966]	Yes (more dominant epitopes are defined by being recognized by 3 or more donors/different studies)	CD8		
1389 (MIAQYTSAL) [compound 1389]			Yes (more dominant epitopes are defined by being recognized by 3 or more donors/different studies)	CD8
1033 (SSNVANYQK) [compound 1033]	Yes (more dominant epitopes are defined by being recognized by 3 or more donors/different studies)	CD8		
995 (FYAYLRKHF) [compound 995]	Yes (more dominant epitopes are defined by being recognized by 3 or more donors/different studies)	CD8		
1366 (TECSNLLLQY) [compound 1366]			Yes (more dominant epitopes are defined by being recognized by 3 or more donors/different studies)	CD8
1069 (NLWNTFTRL) [compound 1069]	Yes (more dominant epitopes are defined by being recognized by 3 or more donors/different studies)	CD8		
1042 (IVDTVSALV) [compound 1042]	Yes (more dominant epitopes are defined by being recognized by 3 or more donors/different studies)	CD8		
931 (TMADLVYAL) [compound 931]	Yes (more dominant epitopes are defined by being recognized by 3 or more donors/different studies)	CD8		
1461 (QYIKWPWYI) [compound 1461]			Yes (more dominant epitopes are defined by being recognized by 3 or more donors/different studies)	CD8
1345 (IPIGAGICASY) [compound 1345]			Yes (more dominant epitopes are defined by being recognized by 3 or more donors/different studies)	CD8
1072 (KVDGVDVEL) [compound 1072]	Yes (more dominant epitopes are defined by being recognized by 3 or more donors/different studies)	CD8		
1319 (QPYRVVVL) [compound 1319]			Yes (more dominant epitopes are defined by being recognized by 3 or more donors/different studies)	CD8
1421 (YHLMSFPQSA) [compound 1421]			Yes (more dominant epitopes are defined by being recognized by 3 or more donors/different studies)	CD8
1442 (GTHWFVTQR) [compound 1442]			Yes (more dominant epitopes are defined by being recognized by 3 or more donors/different studies)	CD8
951 (FVDGVPFVV) [compound 951]	Yes (more dominant epitopes are defined by being recognized by 3 or more donors/different studies)	CD8		
1347 (SPRRARSVA) [compound 1347]			Yes (more dominant epitopes are defined by being recognized by 3 or more donors/different studies)	CD8

Substance	Dominant [1, 3]	Restriction [2, 4]	Dominant ([1]; SARS-CoV-2 Ag S, CD8 epitopes)	Restriction [2, 5]
970 (RLYYDSMSY) [compound 970]	Yes (more dominant epitopes are defined by being recognized by 3 or more donors/different studies)	CD8		
1425 (FPQSAPHGVVF) [compound 1425]			Yes (more dominant epitopes are defined by being recognized by 3 or more donors/different studies)	CD8
1055 (AIMTRCLAV) [compound 1055]	Yes (more dominant epitopes are defined by being recognized by 3 or more donors/different studies)	CD8		
1466 (SEPVLKGVKL) [compound 1466]			Yes (more dominant epitopes are defined by being recognized by 3 or more donors/different studies)	CD8
905 (ALWEIQQV) [compound 905]	Yes (more dominant epitopes are defined by being recognized by 3 or more donors/different studies)	CD8		
1025 (VVYRGTTTYK) [compound 1025]	Yes (more dominant epitopes are defined by being recognized by 3 or more donors/different studies)	CD8		
1304 (NYNYLYRLFRK) [compound 1304]			Yes (more dominant epitopes are defined by being recognized by 3 or more donors/different studies)	CD8
1351 (VASQSIIAY) [compound 1351]			Yes (more dominant epitopes are defined by being recognized by 3 or more donors/different studies)	CD8
1342 (IGAEHVNNSY) [compound 1342]			Yes (more dominant epitopes are defined by being recognized by 3 or more donors/different studies)	CD8
1313 (YFPLQSYGF) [compound 1313]			Yes (more dominant epitopes are defined by being recognized by 3 or more donors/different studies)	CD8
1392 (LQIPFAMQMAY) [compound 1392]			Yes (more dominant epitopes are defined by being recognized by 3 or more donors/different studies)	CD8
1405 (VLNDILSRL) [compound 1405]			Yes (more dominant epitopes are defined by being recognized by 3 or more donors/different studies)	CD8
1398 (NQKLIANQF) [compound 1398]			Yes (more dominant epitopes are defined by being recognized by 3 or more donors/different studies)	CD8
1019 (VLQAVGACV) [compound 1019]	Yes (more dominant epitopes are defined by being recognized by 3 or more donors/different studies)	CD8		
1458 (YEQYIKWPWYI) [compound 1458]			Yes (more dominant epitopes are defined by being recognized by 3 or more donors/different studies)	CD8
1052 (VLWAHGFEL) [compound 1052]	Yes (more dominant epitopes are defined by being recognized by 3 or more donors/different studies)	CD8		
1008 (RILGAGCFV) [compound 1008]	Yes (more dominant epitopes are defined by being recognized by 3 or more donors/different studies)	CD8		
943 (KLFDRYFKY) [compound 943]	Yes (more dominant epitopes are defined by being recognized by 3 or more donors/different studies)	CD8		

From US20250231185A1, “Coronavirus T Cell Epitopes, Megapools and Uses Thereof” (La Jolla Institute for Immunology, priority 2021, published 2025)
